≈ marks a conversion by molar mass, not a printed value.
Legend:
[1] = test system: HT-29; experiment: Cytotoxicity against human HT-29 cells assessed as inhibition of cell viability incubated for 72 hrs; type: functional, cell-based; conditions: HT-29, 72 h
[2] = test system: MDA-MB-435; experiment: Cytotoxicity against human MDA-MB-435 cells assessed as inhibition of cell viability incubated for 72 hrs; type: functional, cell-based; conditions: MDA-MB-435, 72 h
[3] = test system: OVCAR-3; experiment: Cytotoxicity against human OVCAR-3 cells assessed as inhibition of cell viability incubated for 72 hrs; type: functional, cell-based; conditions: OVCAR-3, 72 h
[4] = test system: MDA-MB-231; experiment: Cytotoxicity against human MDA-MB-231 cells assessed as inhibition of cell viability incubated for 72 hrs; type: functional, cell-based; conditions: MDA-MB-231, 72 h
[5] = test system: Staphylococcus epidermidis; experiment: Antibacterial activity against Staphylococcus epidermidis by a two-fold serial dilution method; type: functional
[6] = test system: Escherichia coli; experiment: Antibacterial activity against Escherichia coli TISTR 780 by a two-fold serial dilution method; type: functional
[7] = test system: Micrococcus luteus; experiment: Antibacterial activity against Micrococcus luteus by a two-fold serial dilution method; type: functional
[8] = test system: Salmonella typhimurium; experiment: Antibacterial activity against Salmonella typhimurium TISTR 291 by a two-fold serial dilution method; type: functional, Salmonella enterica subsp. enterica serovar Typhimurium; conditions: Salmonella enterica

MIC [5] [µg/mL]	MIC [6] [µg/mL]	MIC [7] [µg/mL]	MIC [8] [µg/mL]	SMILES	IC50 [1] [µM]	IC50 [2] [µM]	IC50 [3] [µM]	IC50 [4] [µM]
–	–	–	–	CC[C@@]12CCCN3C(=O)C(Cl)=C4c5ccccc5N(C(=O)CC1)[C@]432	> 10	> 10	5.9	> 10
64 (≈ 208 µM)	64 (≈ 208 µM)	64 (≈ 208 µM)	64 (≈ 208 µM)	CC[C@@]12CCCN3C(=O)C=C4c5ccccc5N(C(=O)CC1)[C@]432	> 10	> 10	9.1	> 10
